Data set [1] deals with G. duodenalis trophozoites. The data set is described as follows: In vitro susceptibility, MTT reduction. Type of data set: cell-based, Giardia duodenalis (WB strain).
For data set [2] the following is noted: mouse, no reference given; cited from earlier work.
For data set [3], the system named is G. duodenalis trophozoites. The data set is described as follows: ROS formation, H2DCFDA flow cytometry. The format is cell-based, Giardia duodenalis. Particulars: 1.2 mM (twice MLC), 24 h. The protocol:
(§1) The identification and quantitative determinations of trophozoites were carried out as follows: (a) apoptosis or necrosis were determined using anti-annexin V-fluorescein isothiocyanate (FITC) antibodies or PI as respective markers, (b) oxidative stress was determined by formation of reactive oxygen species (ROS) with the fluorescent ROS-complexing agent 5-(and 6)-carboxy 2′7′-dichlorodihydrofluorescein diacetate (H2DCFDA), and (c) determination of trophozoites cell cycle stages (G1, S, G2, and G2/M) after exposure to ALC or to a control drug (albendazole, ABZ) was carried out as previously described (Martínez-Espinosa et al., [2015]). In all these assays 20,000 cells per sample were recorded.

Data set [4] relates to G. duodenalis trophozoites. Put plainly: In vitro susceptibility, direct cell count (DCC). Particulars: 24 h exposure. Type of data set: cell-based, Giardia duodenalis (WB strain).
In data set [5] the test system is G. duodenalis trophozoites. Put plainly: In vitro susceptibility, trypan blue exclusion (TBE). To be noted: 24 h exposure. Type of data set: cell-based, Giardia duodenalis (WB strain). The protocol:
G. duodenalis trophozoites from the WB strain (ATCC # 30957) were axenically cultured in modified Diamond's TYI-S-33 medium (Keister, [1983]) without bile at 37°C. Cell harvests were carried out by chilling flasks at the log phase of growth reached after 72–96 h routine subcultures. Detached trophozoites were either directly counted in a haemocytometer or washed 3 times with phosphate buffer saline (PBS) prior to counting and the cell number was adjusted as required in the assays.
When complete TYI-S-33 medium (final cysteine concentration = 12.4 mM) was used, it was no older than 10 days to avoid cysteine oxidation. […] Parasites were harvested and counted and trophozoite's viability was determined by physiological methods to determine the growth capacity of trophozoites after drug exposure (subculture in liquid medium SCLM)] or trophozoite and membrane integrity [direct cell count (DCC) and trypan blue exclusion (TBE), respectively]. […] All these protocols have been described elsewhere (Argüello-García et al., [2004]) except that DCC values were calculated from total cell numbers of compound-exposed trophozoites divided by the initial trophozoites' inoculum (1 × 10^6) and TBE was performed by incubating PBS-washed parasites in a trypan blue solution (0.4% [w/v] final concentration) for 5 min at room temperature followed by microscopic count of “stained” (non-viable) parasites. […]

Data set [6] deals with G. duodenalis trophozoites. Put plainly: Efficacy in experimental giardiasis. Particulars: for cure rate (gerbils without trophozoites): read day 13.
Description: Eighty male Mongolian gerbils (M. unguiculatus) 6–10 weeks old, weighted 45–60 g and sentinel-checked gerbils free of intestinal parasites were kept in individual cages and distributed in 12 groups of 6 animals per treatment and experimental infections were performed as described elsewhere (Argüello-García and Ortega-Pierres, [1997]). In brief, animals were inoculated intragastrically with 1 × 10^6 G. duodenalis trophozoites in 500 μl sterile PBS per os using gavage under ether anesthesia. Control animals received 500 μl sterile PBS each. […] As additional control, one group of animals received MTZ (38.4 mg/kg at single or double dose). […] Treatment efficacy was evaluated by determining the presence or absence of trophozoites in intestinal contents of control and treated gerbils at day 13 post-infection. For this, gerbils were euthanized by an intraperitoneal injection of pentobarbital at a dose of 150 mg/kg to minimize stress and to reduce suffering, then a 10 cm-long section of intestine (from stomach ending, equivalent to nearly the entire small intestine) was excised after laparotomy, and it was longitudinally opened and rinsed in 20 mL PBS at 4°C for 20 min under shaking (720 rpm, Heidolph^TM rotatory shaker) to determine trophozoites number after parasite detachment from microvilli. Supernatant was collected and centrifuged at 750 × g for 10 min at 4°C, cell pellet was resuspended in 1 mL PBS and trophozoites were counted using a haemocytometer. Gerbils were scored as cured if no trophozoites were recovered from infected animals.
Data set [7] relates to G. duodenalis trophozoites. The data set is described as follows: Electron microscopy of exposed trophozoites. Type of data set: cell-based, Giardia duodenalis. The protocol:
Trophozoites were exposed to TACs in two ways: under long (24 h, standard toxicity) and short (3 h, acute toxicity) incubations at 37°C using concentrations corresponding to the experimental MLC (as determined at 24 h) and twofold the MLC, respectively. For scanning electron microscopy, PBS-washed parasites were fixed with 2.5% glutaraldehyde in 0.1 M sodium cacodylate buffer, pH 7.2, dehydrated under increasing concentrations of ethanol, critical-point dried using a Samdri apparatus, gold coated in an ion sputtering device (JEOL-JFC-1100), and examined with a JEOL 35-C scanning electron microscope. In transmission electron microscopy (TEM) studies, washed cells were fixed with 2.5% glutaraldehyde and post-fixed with 1% osmium tetroxide in cacodylate buffer. Following sequential dehydration in ethanol, samples were embedded with epoxy resins.

For data set [8], the system named is G. duodenalis trophozoites. The data set is described as follows: Cell cycle stages, PI flow cytometry. Type of data set: cell-based, Giardia duodenalis. To be noted: 24 h. The protocol: as §1

Values after ≈ are worked out from the molar mass of the structure shown. Values joined by “and” are separate entries in the source; they are usually repeats but may differ in a detail not shown here. Equal values may be shown once.

What is called IC50 is the concentration at which inhibition is half-maximal. Low values mean higher potency, high ones lower potency. As for `C=CCS[S+]([O-])CC=C` (stereo not drawn) [ALC, diallyl thiosulfinate], the IC50 in data set [1] (Giardia duodenalis, MTT assay, value as quoted in Discussion) was found to be 686 µM; in data set [4] (Giardia duodenalis) it was 369 ± 21 µM; in data set [5] (Giardia duodenalis) it was 405 ± 38 µM. Also, the “MLC (mM) ±SD” value in data set [1] (MTT, 24 h exposure) was 1.490 ± 0.025 mM (≈ 242 µg/mL); in data set [4], 1.08 mM (≈ 175 µg/mL); in data set [4] (listed as Allicin), 1.088 ± 0.24 mM (≈ 177 µg/mL); in data set [5], 1.12 mM and 1.127 ± 0.05 mM. Further, in data set [2], the oral lethality was 300 mg/kg. The “cells positive for ROS (total)” value in data set [3] worked out at 0.75%. Besides, the “cure rate (gerbils without trophozoites)” value in data set [6] (35 mg/kg single dose intragastric day 10 p.i.) is 3 out of 6; in data set [6] (70 mg/kg single dose intragastric day 10 p.i.), 5 out of 6 and 5/6; in data set [6] (138 mg/kg single dose intragastric day 10 p.i.), 6 out of 6 and 6/6; in data set [6] (276 mg/kg single dose intragastric day 10 p.i.), 5 out of 6. The intestinal parasite numbers result in data set [6] (increasing single doses 35-276 mg/kg, day 13 p.i.) is “progressive decrease in parasite numbers”. In addition, the “surface damage by scanning electron microscopy” value in data set [7] (600 μM, 24 h (standard toxicity)) is “membrane blebbing process with profuse holes”. Further, the “intracellular damage by transmission electron microscopy” value in data set [7] (standard (600 μM 24 h) or acute (1.2 mM 3 h) protocol) was “complete loss of electron density of the intracellular elements and the integrity of plasma membrane”. For the same compound, the “cells at G1 phase” value was 7.4% and 7.43% in data set [8] (0.6 mM); 2.2% and 2.22% in data set [8] (1.2 mM). In addition, the “cells at G2/M phase” value in data set [8] (0.6 mM) is 4.4% and 4.44%; in data set [8] (1.2 mM) it was 5.7% and 5.72%. For the same compound, the “cells at G2 phase” value in data set [8] (0.6 mM) is 61.0% and 61.09%; in data set [8] (1.2 mM), 75.53%. The “cells at S phase” value is 27.03% in data set [8] (0.6 mM); 5.7% and 5.72% in data set [8] (1.2 mM).

The values are drawn from article PMC6196658, “Activity of Thioallyl Compounds From Garlic Against Giardia duodenalis Trophozoites and in Experimental Giardiasis” (Frontiers in Cellular and Infection Microbiology, 2018).
